One test has as its system 9L cells. The test can be described thus: Intracellular localization of ROS 12 hours after ionizing radiation (DCFD, confocal laser scanning microscope), 9L. It counts as cell-based, rat. Particulars: pre-treatment with 1 mM 5-ALA 4 hours before 10 Gy, 12 hours after irradiation, vs no 5-ALA. The protocol: Intracellular ROS production was detected by our method using DCFD and a confocal laser scanning microscope (LMS5 Pascal; Carl Zeiss, Jena, Germany) (Yamamoto J, Ogura S, Tanaka T, et al: Radiosensitizing effect of 5-aminolevulinic acid-induced protoporphyrin IX in glioma cells in vitro. Oncol Rep 27: 1748-1752, 2012.). Briefly, the cells were seeded in a fresh medium containing 1 mM 5-ALA in a 35-mm glass-bottom culture dish (Asahi Techno Glass, Tokyo, Japan), and were then incubated at 37° C. for 4 hours in a dark room. Thereafter, the cells were washed with PBS, and were then exposed to an ionizing radiation of 10 Gy. Twelve hours after the ionizing irradiation, the cells were washed with PBS twice, and were then incubated together with 10 μM DCFD for 15 minutes. Thereafter, the cells were washed with PBS twice, and immediately after the washing, the resulting cells were observed. DCFD fluorescence (excitation: 488 nm; radiation: 505-530 nm band-pass filter) was imaged on a confocal laser scanning microscope. All procedures were carried out in a dark room.

Test [1] deals with 9L gliosarcoma cells. The test can be described thus: In vivo radiosensitizing effect of ALA with multiple doses of ionizing radiation, tumor growth in rat subcutaneous tumor model. Here is the method: As experimental animals, inbred male Fischer 344 rats (8 week old) (SLC, Inc. (Hamamatsu, Japan)) were used and were inoculated with 9L gliosarcoma cells. The inoculation was carried out in accordance with the procedures described in the following publications: Yamamoto J, Hirano T, Li S, Koide M, Kohno E, Inenaga C, et al.: Selective accumulation and strong photodynamic effects of a new photosensitizer, ATX-S10.Na (II), in experimental malignant glioma. Int J Oncol 27: 1207-13, 2005; Yamamoto J, Yamamoto S, Hirano T, Li S, Koide M, Kohno E, et al.: Monitoring of singlet oxygen is useful for predicting the photodynamic effects in the treatment for experimental glioma. Clin Cancer Res 12: 7132-9, 2006. In short, 9L gliosarcoma cells (1×10^6 cells) were transplanted into the skin on the dorsal side of each Fischer 344 rat, so as to produce a rat subcutaneous tumor model.
As described above, 9L gliosarcoma cells were inoculated into inbred Fischer 344 rats. […] Moreover, according to other previous studies, it had been reported that the dose of ALA by a single intravenous injection is 100 to 500 mg/kg body weight in the photodynamic therapy (PDT) using rodents (Yamamoto J, Yamamoto S, Hirano T, Li S, Koide M, Kohno E, et al.: Monitoring of singlet oxygen is useful for predicting the photodynamic effects in the treatment for experimental glioma. Clin Cancer Res 12:7132-9, 2006; Abels C, Heil P, Dellian M, Kuhnle G E, Baumgartner R, Goetz A E: In vivo kinetics and spectra of 5-aminolaevulinic acid-induced fluorescence in an amelanotic melanoma of the hamster. Br J Cancer 70: 826-33, 1994; Abels C, Fritsch C, Bolsen K, Szeimies R M, Ruzicka T, Goerz G, et al.: Photodynamic therapy with 5-aminolaevulinic acid-induced porphyrins of an amelanotic melanoma in vivo. J Photochem Photobiol B 40: 76-83, 1997; Bozzini G, Colin P, Betrouni N, Maurage C A, Leroy X, Simonin S, et al.: Efficiency of 5-ALA mediated photodynamic therapy on hypoxic prostate cancer: a preclinical study on the Dunning R3327-AT2 rat tumor model. Photodiagnosis Photodyn Ther 10: 296-303, 2013.). Accordingly, in the present study, the present inventors have determined the maximum dose of ionizing radiation to be 10 Gy, and the maximum dose of ALA to be 500 mg/kg body weight. […] Multiple intravenous injections into the caudal vein of rats had been technically difficult, but according to the experience of the present inventors, at maximum 5 times of injections had been possible. Accordingly, the present inventors have determined an optimal ionizing irradiation schedule, in which ionizing irradiation at a dose of 2 Gy/day and ALA multiple-dose administration at a dose of 100 mg/kg body weight/day were carried out for 5 consecutive days. After the subcutaneous tumor had grown to a size of 6 to 8 mm in diameter, the rats were randomly divided into four groups, and were then treated as follows:
control group (without treatments) (n=5); ALA multiple-dose administration group (n=5); ionizing radiation multiple-dose application group (RT) (n=7); and ALA multiple-dose administration+ionizing radiation multiple-dose application group. (5-ALA+RT) (n=7).
In a group to which only ALA was administered, only ALA (100 mg/kg) was administered to rats via caudal vein for 5 consecutive days. In a multiple-dose application group involving only ionizing radiation, rats were anesthetized and were then irradiated with an ionizing radiation of 2 Gy/day for 5 consecutive days (a total of 10 Gy). In an ALA multiple-dose administration+ionizing radiation multiple-dose application group, for 5 consecutive days, rats were intravenously administered with ALA (100 mg/kg), then 3 hours later, the rats were anesthetized, and an ionizing radiation of 2 Gy/day was applied to the subcutaneous tumor thereof in a dark place (a total of 10 Gy). Ionizing radiation was applied at a rate of 0.65 Gy/min, using an X-ray irradiation apparatus (MBR-1520R; HITACHI Engineering & Service Co., Ltd., Japan). […]

In test [2] the test system is 9L gliosarcoma cells. The test can be described thus: Accumulation of ALA-induced PpIX in rat subcutaneous tumor model (HPLC analysis and fluorescence observation). It counts as in vivo.
Protocol: As experimental animals, inbred male Fischer 344 rats (8 week old) (SLC, Inc. (Hamamatsu, Japan)) were used and were inoculated with 9L gliosarcoma cells. […] In short, 9L gliosarcoma cells (1×10^6 cells) were transplanted into the skin on the dorsal side of each Fischer 344 rat, so as to produce a rat subcutaneous tumor model.
Specifically, after the transplanted tumor had grown to a size of 1 cm in diameter, 100 mg/kg body weight of ALA was injected into the caudal vein of each rat (i.v.). Three hours later, the rat was anesthetized, and a tumor portion, excluding a portion covering the dorsal skin, was excised from the rat. The tumor portion was immediately subjected to a freezing treatment using dry ice, and the resultant was then preserved at −80° C. in a dark place.
Specifically, a tumor sample (approximately 1 mm in diameter) was treated with 200 μl of 0.1 M NaOH, and it was then homogenized on ice, using Powermasher II (Assist, Tokyo, Japan). […]
For the elution, Solvent A was used for 5 minutes, then, linear gradient Solvent B (0% to 100%) was used for 25 minutes, and thereafter, Solvent B was used for 10 minutes. The flow rate for elution was maintained at constant, using a fluorospectro-photometer (excited at 404 nm, and detected at 624 nm). […]

These results are taken from patent US20170056351A1, “COMPOSITION FOR INDUCING TUMOR IMMUNITY” (UNIVERSITY OF OCCUPATIONAL AND ENVIRONMENTAL HEALTH, JAPAN, priority 2014, published 2017).

Each structure is given as a SMILES string.

`NCC(=O)CCC(=O)O` [ALA, 5-aminolevulinic acid]: the “DCF fluorescence in the cytoplasm (confocal)” value in the test on 9L cells is recorded as “apparently increased”. In the test on 9L gliosarcoma cells [1] (16th day after treatment, ALA multiple-dose + ionizing radiation multiple-dose group compared with ionizing radiation multiple-dose group), the “mean tumor growth inhibitory rate” value is 42.5%. Also, the “mean tumor volume, Day 0” value with 9L gliosarcoma cells [1] (ALA alone 100 mg/kg i.v. for 5 consecutive days, Day 0, mean ± SE, n = 5) amounted to 143.9 ± 17.4 mm^3. Besides, the “mean tumor volume, Day 8” value with 9L gliosarcoma cells [1] (ALA alone 100 mg/kg i.v. for 5 consecutive days, Day 8, mean ± SE, n = 5) was 865.4 ± 107.2 mm^3. The “mean tumor volume, Day 10” value with 9L gliosarcoma cells [1] (ALA alone 100 mg/kg i.v. for 5 consecutive days, Day 10, mean ± SE, n = 5) was determined as 1403 ± 224.3 mm^3. The “mean tumor volume, Day 12” value in the test on 9L gliosarcoma cells [1] (ALA alone 100 mg/kg i.v. for 5 consecutive days, Day 12, mean ± SE, n = 5) is on record as 1842.6 ± 218.8 mm^3. Moreover, the “mean tumor volume, Day 14” value in the test on 9L gliosarcoma cells [1] (ALA alone 100 mg/kg i.v. for 5 consecutive days, Day 14, mean ± SE, n = 5) came to 2276.3 ± 192.8 mm^3. In the test on 9L gliosarcoma cells [1] (ALA alone 100 mg/kg i.v. for 5 consecutive days, Day 16, mean ± SE, n = 5), the “mean tumor volume, Day 16” value was 2869.4 ± 267.9 mm^3. Moreover, the “growth of the tumor in comparison to the control group” value with 9L gliosarcoma cells [1] (ALA multiple-dose administration alone, 16th day, p=0.0448) is “inhibited”. For the same compound, the “amount of PpIX in tumor induced by ALA (HPLC)” value in the test on 9L gliosarcoma cells [2] (3 hours after intravenous administration of ALA 100 mg/kg body weight, mean±SE) came to 3.66±0.91 pmol/mg protein. Further, the “fluorescence of subcutaneous tumor under 410 nm light” value with 9L gliosarcoma cells [2] (3 hours after intravenous administration of ALA, compared with control tumor without ALA) is “strong fluorescence”.
